Assay [1] has as its system Schgr-sNPFR. The assay is described as follows: Calcium assay, aequorin bioluminescence in CHO-PAM28-Schgr-sNPFR cells (no Gα16). The format is cell-based, Schistocerca gregaria. The following applies: for EC50: CHO-PAM28 cells without Gα16, aequorin bioluminescence, three independent measurements in duplicate; for maximum response (aequorin bioluminescence): Schgr-sNPF and Schgr-sNPF^4−11 compared with each other. Here is the method: (§1) Three cell lines were used in this study. General receptor studies were performed in Chinese Hamster Ovary (CHO)-WTA11 cells, a clone of CHO cells stably coexpressing the promiscuous Gα16 and apoaequorin. To determine the mode of downstream signalling, we used either CHO-PAM28 cells, a clone of CHO cells expressing apoaequorin but not the promiscuous Gα16, or Human Embryonic Kidney (HEK) 293T cells, expressing neither Gα16 nor apoaequorin. All cell lines used in this study were provided by Prof. Dr. M. Parmentier and Dr. M. Dethreux (Université Libre de Bruxelles) and Euroscreen S.A., Belgium.
(§2) The cells were cultured in monolayer, in Dulbecco’s Modified Eagle Medium Nutrient Mixture F12-Ham (DMEM/F12, Invitrogen) containing 10% fetal calf serum (Invitrogen), 100 IU/ml penicillin/streptomycin (Invitrogen). For the CHO-WTA11 cells, 250 µg/ml Zeocin™ (Invitrogen) was added to the medium, while to the medium of CHO-PAM28 cells, 5 µg/ml Puromycin (Invitrogen) was added. The cells were grown at 37°C, with a constant supply of 5% CO2 and split every 3 days.
(§3) Transfections with either Schgr-sNPFR/pcDNA3.1D or empty pcDNA3.1D vector were performed in T75 flasks at ca. 60% confluency. Transfection reagent was prepared by combining 2,5 ml of DMEM/F12, 5 µg of the plasmid DNA and 12.5 µl of PLUS™ Reagent (Invitrogen). After storing the medium at room temperature for 5 minutes, 30 µl Lipofectamine™ LTX (Invitrogen) was added and the transfection medium was added dropwise into 3 ml of culture medium after 30 minutes incubation at room temperature. HEK 293T cells were cotransfected with a reporter construct, consisting of a luciferase gene situated downstream of a cyclic AMP (cAMP) response element (CRE) and promoter.
In the calcium-assays, CHO-WTA11 or CHO-PAM28 cells expressing the Schgr-sNPFR were detached two days after transfection, counted using the NucleoCounter® NC-100™ (Chemometec), and resuspended in DMEM/BSA (DMEM/F12, 10 mM HEPES, 0.1% bovine serum albumin) at a concentration of 5×10^5 cells/ml. Cells where then shielded from light and incubated for 4 h with 5 µM coelenterazine h (Invitrogen), allowing the aequorin holoenzyme to be reconstituted.
After incubation, the cell suspension was injected in wells containing a peptide solution, dissolved in 50 µl BSA medium. After 30 s, 50 µl of 0.1% Triton X-100 was injected, lysing the cells and thus serving as an internal reference. Wells containing no peptide but DMEM/BSA were used as a negative control while wells containing 1 µM ATP were used as a positive control. Light emission was monitored using a Mithras LB 940 Microplate Reader (Berthold technologies).
(§4) Data generated in these experiments were analysed using GraphPad Prism 5 (GraphPad Software).
These two peptides were then further studied with respect to their mode of intracellular signalling. Cell based assays were performed using a CHO-PAM28 cell line, expressing apoaequorin, allowing the detection of increases in the intracellular concentration of calcium ions. […] The calculated EC50 values were both in the nanomolar range.

Assay [2] deals with Schgr-sNPFR. The assay is described as follows: Calcium assay, aequorin bioluminescence in CHO-WTA11-Schgr-sNPFR cells (promiscuous Gα16). The format is cell-based, Schistocerca gregaria. The following applies: for EC50: CHO-WTA11 cells with Gα16, aequorin/coelenterazine h luminescence, 30 s read, ± (95% confidence interval), three independent measurements in duplicate. Here is the method: as §1, §2
Transfections with either Schgr-sNPFR/pcDNA3.1D or empty pcDNA3.1D vector were performed in T75 flasks at ca. 60% confluency. […]
In the calcium-assays, CHO-WTA11 or CHO-PAM28 cells expressing the Schgr-sNPFR were detached two days after transfection, counted using the NucleoCounter® NC-100™ (Chemometec), and resuspended in DMEM/BSA (DMEM/F12, 10 mM HEPES, 0.1% bovine serum albumin) at a concentration of 5×10^5 cells/ml. […]
After incubation, the cell suspension was injected in wells containing a peptide solution, dissolved in 50 µl BSA medium. […] Light emission was monitored using a Mithras LB 940 Microplate Reader (Berthold technologies).
as §4
As putative ligands for the cloned Schistocerca gregaria sNPF receptor, Schgr-sNPF (SNRSPSLRLRFa), Schgr-sNPF^4−11 (SPSLRLRFa) and Schgr-trNPF (YSQVARPRFa) were tested. […] For each of these peptides, the dose-dependent activation of the Schgr-sNPFR was studied in CHO-WTA11 cells and EC50 values were calculated.

Assay [3] has as its system adult locusts. The assay can be described thus: Peptide injection feeding assay (food uptake). Type of assay: in vivo, Schistocerca gregaria. The following applies: for reduction of food uptake: 2 µl of 100 µg/ml injected dorsally, cabbage for one hour, vs saline, n = 20; for effect on food uptake (result in words): normalized to body mass, mean, n = 20, ANOVA with Tukey. The method, then:
The desert locusts used in this study were all gregarious adult animals. They were reared under crowded conditions at a constant temperature (32±1°C) and photoperiod (14 h). The locusts were kept at high density (>200 locusts per cage) and fed daily with cabbage and dry oat flakes. In an effort to normalize feeding responses, locusts used in feeding experiments were placed in separate cages and placed on a controlled dietary regimen one week prior to the assay. Locusts were fed for two hours each day (9 h–10 h, 16 h–17 h).
At 9 AM, 2 µl of a 100 µg/ml peptide solution (experimental condition) or saline solution (negative control) was injected dorsally between the first and second abdominal segments using a 710 RN injector (Hamilton). Pieces of cabbage were weighed in advance and presented to the locusts for one hour, after which all animals had stopped feeding. In parallel, similar pieces of cabbage were put in empty cages during the period of the experiment. The relative weight loss of these pieces was used to estimate the effect of evaporation All cabbage leafs were weighed after the feeding assay, total food uptake was calculated and corrected for the weight that was lost by evaporation. The results were analysed using GraphPad Prism 5 (GraphPad Software).

Assay [4] deals with Schgr-sNPFR. The assay is described as follows: cAMP assay, CRE-luciferase bioluminescence in HEK-293T-Schgr-sNPFR cells. The format is cell-based, Schistocerca gregaria. The following applies: HEK 293T cells; for IC50: 200 µM IBMX + NKH 477, 3 h at 37°C, three independent measurements in duplicate, read-out: IC50 (inhibition of CRE-luciferase reporter expression); for inhibition of the reporter expression (result in words): CRE-luciferase, 200 µM IBMX + NKH 477. Here is the method: as §1, §2, §3
HEK 293T cells, cotransfected with the Schgr-sNPFR/pcDNA3.1 vector and the CRE-luciferase construct, were detached two days after transfection, centrifuged and resuspended to a concentration of 10^6 cells/ml in DMEM/F12 containing 200 µM 3-isobutyl-1-methylxanthine (IBMX; Sigma-Aldrich). Fifty µl of this suspension was introduced into in each well of a 96-well-plate. When studying stimulatory effects, peptides were dissolved in DMEM/F12 containing 200 µM IBMX. When studying inhibitory effects, these peptides were dissoved in DMEM/F12 supplemented with 200 µM IBMX and 20 µM NKH 477 (a water-soluble analogue of forskolin; Sigma-Aldrich). […] Light emission, resulting from the luciferase activity, was measured for 5 s/well using the Mithras LB 940 Microplate Reader.
as §4
The possible effect of receptor activation on intracellular cyclic AMP (cAMP) production was analysed in HEK 293T cells that were cotransfected with a CRE-luciferase reporter construct.
For orientation: Changes in cAMP serve as a functional read-out for many G protein-coupled receptors.

Entries after “also recorded” stand apart in the source; their conditions may differ. Where a SMILES comes first, the peptide text is derived from it.

The EC50 is the concentration needed to bring the measured effect to its halfway point. For orientation: IC50 means the concentration needed to halve the response being measured. For `CC(C)C[C@H](NC(=O)[C@H](CCCNC(=N)N)NC(=O)[C@H](CC(C)C)NC(=O)[C@H](CO)NC(=O)[C@@H]1CCCN1C(=O)[C@@H](N)CO)C(=O)N[C@@H](CCCNC(=N)N)C(=O)N[C@@H](Cc1ccccc1)C(N)=O` [Schgr-sNPF^4−11] (H-SPSLRLRF-NH2), the “increase of aequorin bioluminescence” value in assay [1] (CHO-PAM28 cells) is reported as “dose-dependent increase of aequorin bioluminescence”. Besides, the EC50 in assay [1] worked out at 32.2 ± 18.2 nM; in assay [2], 5.56 ± 1.8 nM. Further, the “maximum response (aequorin bioluminescence)” value in assay [1] (CHO-PAM28 cells) was “markedly higher than those obtained with Schgr-sNPF”. Also, in assay [3], the “reduction of food uptake” value is reported as 37%. Moreover, the “effect on food uptake (result in words)” value is reported as “significant decrease of food uptake” in assay [3] (** p<0.01, *** p<0.001) and “significant decrease in food uptake” in assay [3] (** p<0.01, *** p<0.001, listed as sNPF^4−11). The IC50 in assay [4] was found to be 0.0955 ± 0.0323 nM. In addition, in assay [4], the “inhibition of the reporter expression (result in words)” value is “highly effective”.
For the molecule “SNRSPSLRLRFa [Schgr-sNPF, Schistocerca gregaria short neuropeptide F, […]a]”, in assay [1] (CHO-PAM28 cells), the “increase of aequorin bioluminescence” value is listed as “dose-dependent increase of aequorin bioluminescence” and the “maximum response (aequorin bioluminescence)” value is “markedly lower than that of Schgr-sNPF^4−11”. Further, the EC50 in assay [1] came out at 3.28 ± 2.2 nM. For the same molecule, the “agonist character with respect to calcium response” value in assay [1] (CHO-PAM28 cells, maximum response lower than that of Schgr-sNPF^4−11) is “partial agonist”. In addition, in assay [2], the EC50 was 2.05 ± 0.63 nM. In assay [3], the “reduction of food uptake” value stood at 30%. For the same molecule, the “effect on food uptake (result in words)” value in assay [3] (** p<0.01, *** p<0.001) is recorded as “significant decrease of food uptake”. In addition, the “effect on food uptake (result in words)” value in assay [3] (** p<0.01, *** p<0.001, listed as sNPF) is on record as “significant decrease in food uptake”. In assay [4], the IC50 was 0.0763 ± 0.0261 nM and the “inhibition of the reporter expression (result in words)” value is on record as “highly effective”.
As for “YSQVARPRFa [Schgr-trNPF, truncated form of Schgr-neuropeptide F, …a]”, the “activation of the receptor (result in words)” value in assay [2] (CHO-WTA11 cells, aequorin bioluminescence) is “No dose-dependent response was observed; also recorded: not responsive”.

The values are drawn from article PMC3537624, “Functional Characterization of the Short Neuropeptide F Receptor in the Desert Locust, Schistocerca gregaria” (PLoS ONE, 2013).
